pIC50: −log10 of the molar value.
System: 994946-033-R-J1-PDC complex spheroid viability
Test: Anticancer human tumor 994946-033-R-J1-PDC patient-derived melanoma cell line growth inhibition [POLQ]
Settings: for pIC50: curve of first compound; for viability, T/C: stronger effect = lower value
How it was run: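 PDC + HUVEC + MSC complex spheroids; POLQ inhibitors ± partner drugs; top conc. at/near clinical Cmax, else 10 microM (SN-38 1 microM), half-log dilutions; 37 degrees C, 5% CO2.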

[1] = second compound 0.0316 µM, first compound 0.0316 µM
[2] = second compound 0.0316 µM, first compound 0.1 µM
[3] = second compound 0.0316 µM, first compound 0.316 µM
[4] = second compound 0.0316 µM, first compound 1 µM
[5] = second compound 0.0316 µM, first compound 3.16 µM
[6] = second compound 0.0316 µM, first compound 10 µM
[7] = second compound 0.1 µM, first compound 0.0316 µM
[8] = second compound 0.1 µM, first compound 0.1 µM
[9] = second compound 0.1 µM, first compound 0.316 µM
[10] = second compound 0.1 µM, first compound 1 µM
[11] = second compound 0.1 µM, first compound 3.16 µM
[12] = second compound 0.1 µM, first compound 10 µM
[13] = second compound 0.316 µM, first compound 0.0316 µM
[14] = second compound 0.316 µM, first compound 0.1 µM
[15] = second compound 0.316 µM, first compound 0.316 µM
[16] = second compound 0.316 µM, first compound 1 µM
[17] = second compound 0.316 µM, first compound 3.16 µM
[18] = second compound 0.316 µM, first compound 10 µM
[19] = second compound 1 µM, first compound 0.0316 µM
[20] = second compound 1 µM, first compound 0.1 µM
[21] = second compound 1 µM, first compound 0.316 µM
[22] = second compound 1 µM, first compound 1 µM
[23] = second compound 1 µM, first compound 3.16 µM
[24] = second compound 1 µM, first compound 10 µM
[25] = second compound 3.16 µM, first compound 0.0316 µM
[26] = second compound 3.16 µM, first compound 0.1 µM
[27] = second compound 3.16 µM, first compound 0.316 µM
[28] = second compound 3.16 µM, first compound 1 µM
[29] = second compound 3.16 µM, first compound 3.16 µM
[30] = second compound 3.16 µM, first compound 10 µM
[31] = second compound 10 µM, first compound 0.0316 µM
[32] = second compound 10 µM, first compound 0.1 µM
[33] = second compound 10 µM, first compound 0.316 µM
[34] = second compound 10 µM, first compound 1 µM
[35] = second compound 10 µM, first compound 3.16 µM
[36] = second compound 10 µM, first compound 10 µM
[37] = second compound 0.0316 µM, first compound 0.00316 µM
[38] = second compound 0.0316 µM, first compound 0.01 µM
[39] = second compound 0.1 µM, first compound 0.00316 µM
[40] = second compound 0.1 µM, first compound 0.01 µM
[41] = second compound 0.316 µM, first compound 0.00316 µM
[42] = second compound 0.316 µM, first compound 0.01 µM
[43] = second compound 1 µM, first compound 0.00316 µM
[44] = second compound 1 µM, first compound 0.01 µM
[45] = second compound 3.16 µM, first compound 0.00316 µM
[46] = second compound 3.16 µM, first compound 0.01 µM
[47] = second compound 10 µM, first compound 0.00316 µM
[48] = second compound 10 µM, first compound 0.01 µM
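Note: spheroids exposed to drugs for 7 days.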
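Throughout, for viability, T/C: 100% = DMSO vehicle treated spheroids.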

SMILES: CC(C)n1c(=O)n(C)c2cnc3cc(F)c(-c4ccc(OCCCN5CCCCC5)nc4)cc3c21 + Nc1ccc(C#CCN(C(=O)Cc2ncc(C(F)(F)F)cc2C(F)(F)F)c2ccc(F)cc2)nn1
- pIC50 (second compound 0.0316 µM): < 5.00
- pIC50 (second compound 0.1 µM): < 5.00
- pIC50 (second compound 0.316 µM): < 5.00
- pIC50 (second compound 1 µM): 5.05
- pIC50 (second compound 3.16 µM): 5.08
- pIC50 (second compound 10 µM): < 5.00
- viability, T/C [1]: 82.2%
- viability, T/C [2]: 103%
- viability, T/C [3]: 80.6%
- viability, T/C [4]: 98.5%
- viability, T/C [5]: 83.5%
- viability, T/C [6]: 66.4%
- viability, T/C [7]: 113%
- viability, T/C [8]: 95.3%
- viability, T/C [9]: 52.7%
- viability, T/C [10]: 84.7%
- viability, T/C [11]: 77.5%
- viability, T/C [12]: 67.5%
- viability, T/C [13]: 88.9%
- viability, T/C [14]: 80.9%
- viability, T/C [15]: 94.7%
- viability, T/C [16]: 101%
- viability, T/C [17]: 68.9%
- viability, T/C [18]: 59.6%
- viability, T/C [19]: 76.5%
- viability, T/C [20]: 103%
- viability, T/C [21]: 98%
- viability, T/C [22]: 88.8%
- viability, T/C [23]: 93.6%
- viability, T/C [24]: 45.6%
- viability, T/C [25]: 96.6%
- viability, T/C [26]: 97.7%
- viability, T/C [27]: 97.6%
- viability, T/C [28]: 115%
- viability, T/C [29]: 85%
- viability, T/C [30]: 43%
- viability, T/C [31]: 103%
- viability, T/C [32]: 67.7%
- viability, T/C [33]: 74.4%
- viability, T/C [34]: 82%
- viability, T/C [35]: 87.9%
- viability, T/C [36]: 70.8%

SMILES: C#Cc1c(F)ccc2cc(O)cc(-c3ncc4c(N5CC6CCC(C5)N6)nc(OCC56CCCN5CC(F)C6)nc4c3F)c12 (stereo not drawn) + COC1C(OC(N)=O)C(O)C(Oc2ccc3c(O)c(NC(=O)c4ccc(O)c(CC=C(C)C)c4)c(=O)oc3c2C)OC1(C)C
- pIC50 (second compound 0.0316 µM): 5.30
- pIC50 (second compound 0.1 µM): 5.26
- pIC50 (second compound 0.316 µM): 5.40
- pIC50 (second compound 1 µM): 5.23
- pIC50 (second compound 3.16 µM): 5.38
- pIC50 (second compound 10 µM): 5.27
- viability, T/C [1]: 116%
- viability, T/C [2]: 121%
- viability, T/C [3]: 87.2%
- viability, T/C [4]: 139%
- viability, T/C [5]: 76.4%
- viability, T/C [6]: 11.8%
- viability, T/C [7]: 107%
- viability, T/C [8]: 98.7%
- viability, T/C [9]: 78.8%
- viability, T/C [10]: 110%
- viability, T/C [11]: 82.7%
- viability, T/C [12]: 14.3%
- viability, T/C [13]: 106%
- viability, T/C [14]: 99.7%
- viability, T/C [15]: 96.2%
- viability, T/C [16]: 84.7%
- viability, T/C [17]: 61%
- viability, T/C [18]: 10.2%
- viability, T/C [19]: 77.9%
- viability, T/C [20]: 114%
- viability, T/C [21]: 81.7%
- viability, T/C [22]: 71.5%
- viability, T/C [23]: 82.5%
- viability, T/C [24]: 26.6%
- viability, T/C [25]: 98.2%
- viability, T/C [26]: 92.7%
- viability, T/C [27]: 105%
- viability, T/C [28]: 94.7%
- viability, T/C [29]: 62.3%
- viability, T/C [30]: 9.63%
- viability, T/C [31]: 94.8%
- viability, T/C [32]: 93.2%
- viability, T/C [33]: 65.9%
- viability, T/C [34]: 92%
- viability, T/C [35]: 86.3%
- viability, T/C [36]: 6.26%

SMILES: C=CCn1c(=O)c2cnc(Nc3ccc(N4CCN(C)CC4)cc3)nc2n1-c1cccc(C(C)(C)O)n1 + Cc1cccc(N(C)C(=O)C2C(O)CCN2c2nc(C)cc(C(F)(F)F)c2C#N)c1
- pIC50 (second compound 0.0316 µM): 6.20
- pIC50 (second compound 0.1 µM): < 6.00
- pIC50 (second compound 0.316 µM): 6.31
- pIC50 (second compound 1 µM): 6.12
- pIC50 (second compound 3.16 µM): 6.06
- pIC50 (second compound 10 µM): 6.04
- viability, T/C [37]: 94.9%
- viability, T/C [38]: 95.3%
- viability, T/C [1]: 132%
- viability, T/C [2]: 108%
- viability, T/C [3]: 73.3%
- viability, T/C [4]: 33.9%
- viability, T/C [39]: 66.7%
- viability, T/C [40]: 93.5%
- viability, T/C [7]: 103%
- viability, T/C [8]: 115%
- viability, T/C [9]: 73.5%
- viability, T/C [10]: 52.4%
- viability, T/C [41]: 80.4%
- viability, T/C [42]: 112%
- viability, T/C [13]: 83.5%
- viability, T/C [14]: 102%
- viability, T/C [15]: 60%
- viability, T/C [16]: 33.5%
- viability, T/C [43]: 111%
- viability, T/C [44]: 95.1%
- viability, T/C [19]: 117%
- viability, T/C [20]: 113%
- viability, T/C [21]: 84.3%
- viability, T/C [22]: 39.6%
- viability, T/C [45]: 116%
- viability, T/C [46]: 118%
- viability, T/C [25]: 111%
- viability, T/C [26]: 108%
- viability, T/C [27]: 111%
- viability, T/C [28]: 41.7%
- viability, T/C [47]: 123%
- viability, T/C [48]: 73.9%
- viability, T/C [31]: 81.3%
- viability, T/C [32]: 121%
- viability, T/C [33]: 80.5%
- viability, T/C [34]: 47.4%

SMILES: CCc1c2c(nc3ccc(O)cc13)-c1cc3c(c(=O)n1C2)COC(=O)[C@]3(O)CC + COC1C(OC(N)=O)C(O)C(Oc2ccc3c(O)c(NC(=O)c4ccc(O)c(CC=C(C)C)c4)c(=O)oc3c2C)OC1(C)C
- pIC50 (second compound 0.0316 µM): > 8.50
- pIC50 (second compound 0.1 µM): > 8.50
- pIC50 (second compound 0.316 µM): > 8.50
- pIC50 (second compound 1 µM): > 8.50
- pIC50 (second compound 3.16 µM): > 8.50
- pIC50 (second compound 10 µM): > 8.50
- viability, T/C [37]: 21.2%
- viability, T/C [38]: 10.5%
- viability, T/C [1]: 5.04%
- viability, T/C [2]: 6.46%
- viability, T/C [3]: 4.53%
- viability, T/C [4]: 1.07%
- viability, T/C [39]: 14.8%
- viability, T/C [40]: 7.14%
- viability, T/C [7]: 4.91%
- viability, T/C [8]: 4.35%
- viability, T/C [9]: 3.22%
- viability, T/C [10]: 0.99%
- viability, T/C [41]: 20.7%
- viability, T/C [42]: 8.29%
- viability, T/C [13]: 4.94%
- viability, T/C [14]: 5%
- viability, T/C [15]: 3.67%
- viability, T/C [16]: 0.92%
- viability, T/C [43]: 21.2%
- viability, T/C [44]: 8.21%
- viability, T/C [19]: 5.36%
- viability, T/C [20]: 4.87%
- viability, T/C [21]: 3%
- viability, T/C [22]: 0.93%
- viability, T/C [45]: 17.8%
- viability, T/C [46]: 9.17%
- viability, T/C [25]: 4.15%
- viability, T/C [26]: 4.13%
- viability, T/C [27]: 3.2%
- viability, T/C [28]: 0.9%
- viability, T/C [47]: 16.8%
- viability, T/C [48]: 6.62%
- viability, T/C [31]: 5.93%
- viability, T/C [32]: 4.77%
- viability, T/C [33]: 2.81%
- viability, T/C [34]: 1.02%
